Experimental data reported in patent US20100168054A1, “Functionalized Beta 1,6 Glucosamine Disaccharides and Process for Their Preparation” (OM PHARMA, priority 2006, published 2010).

Tests used:
[1] = system: human peripheral blood mononuclear cells (PBMC); assay: IL-6 secretion by human PBMC (ELISA); format: cell-based; conditions: for IL6: 24 h
Procedure: (§1) Peripheral blood from healthy donors (Centre de transfusion, Hôpital Universitaire, Geneva) was centrifuged to get the buffy coat. The buffy coat was mixed with Hanks' balanced saline solution (HBSS, Sigma, Buchs, Switzerland), layered over Ficoll Paque Plus (Amersham Pharmacia) to 1.077 g/mL and centrifuged (2800 rpm, 20° C., 25 min). Cells harvested from the interphase were washed twice in HBSS at 800 rpm for 15 min at room temperature and the pelleted cells were resuspended in HBSS. The cell counts were performed using a Neubauer cell. All cell cultures were performed in RPMI-1640 medium supplemented with penicillin (100 U/mL), streptomycin (100 μg/mL), L-glutamine (2 mmol/L) and 10% fetal calf serum (FCS), all obtained from Sigma. For in vitro stimulation, the cells were cultured at a concentration of 1×10^6 viable cells/well.
(§2) PBMC were incubated at 37° C. and under 5% CO2 atmosphere with the controls (see below) and with the products of the invention at 1, 5, and 20 μg/mL for IL-6, and at 0.2, 2, and 20 μg/mL for TNF-α secretion. Medium: RPMI alone.
(§3) The surpernatants of the cultures were harvested after 24 h and the concentration of IL-6 and TNF-α were measured by an enzyme-linked immunosorbent assay (ELISA) (Human IL-6 and TNF-α ELISA Set, BD OptEIA, San Diego, USA), according to the manufacturer instructions. The detection limits were 10 and 8 pg/mL respectively.
PBMC are incubated at 37° C. and under 5% CO2 atmosphere with the products of the invention.
The supernatants of the cultures are harvested after 24 h and the concentration of IL-6 was measured by an enzyme-linked immunosorbent assay (ELISA) (Human IL-6 ELISA Set, BD OptEIA, San Diego, USA), according to the manufacturer instructions. The detection limit was 10 pg/mL.

[2] = system: THP1-Blue cells (express naturally both TLR2 and TLR4); assay: THP1-Blue NF-κB/AP-1-inducible SEAP reporter; format: cell-based, human; conditions: for Optical density read at 625 nm, mean of duplicates: 48 h
Procedure: A first series of experiment was performed on THP-1 cells, which express naturally both TLR2 and TLR4. THP-1 cells are human peripheral blood monocytic cells. Monocytes play a key role in innate immunity and express most TLRs at various levels. As for the primary cells, THP-1 cells activate NF-κB and other transcription factors in response to TLR ligands
To facilitate analysis of TLR response in monocytes, InvivoGen (Toulouse, France) provides THP-1 clones stably transfected with an NF-κB-inducible reporter system, called THP1-Blue™. THP-1 Blue cells were stably transfected with a reporter plasmid expressing a secreted embryonic alkaline phosphatase (SEAP) gene under the control of a promoter inducible by several transcription factors such as NF-κB and AP-1. Upon TLR stimulation, THP1-Blue™ cells activate transcription factors and subsequently the secretion of SEAP which is easily detectable when using QUANTI-Blue\u2122a medium that turns purple/blue in the presence of SEAP.
The cells were stimulated with the controls and compounds of the invention according to manufacturer's instructions. Results: Increased OD at 625 Nm after 48 Hours: The results for the controls (negative=LPS K12CD25 ultrapure, a TLR4 agonist; and PAM3CSK4=positive, a TLR2 agonist) are provided in the table below. The results (expressed as OD of arbitrary units) show the mean values (from duplicate measures) of Optical density read at 625 nm, 48 h after stimulation at 37° C. with the controls (up to 1000 ng/ml): […]

TLR2 = target: T1, TLR2 (Homo sapiens, UniProt O60603); assay: HEK-TLR2 IL-8 secretion; format: cell-based; conditions: 24 h
T1 construct: host or cells: HEK293
Text: The HEK293 cell line was chosen for its null or low basal expression of the TLR genes. These cells enable efficient monitoring of TLR activity using ELISA analysis such as IL-8 titration or reporter-based systems that monitor TLR-induced NF-κB activation. HEK-TLR2 cells (Invivogen, Toulouse, France) are engineered HEK293 cells stably transfected with multiple genes from the TLR2 pathway that include TLR2 and genes participating in the recognition or involved in the signaling cascade. These cells secrete IL-8 after TLR2 stimulation. The experiments were performed according to manufacturers' instructions. Briefly, 2×10^4 cells/well (200 ul RPMI) are incubated at 37° C. during 3 days (5% CO2). The medium is removed, and 90 ul RPMi+5% FCS is added to the wells Then the agonists and controls are added (10 ul/well). The cells return to the incubator for 24 hours. The supernatants are collected and the IL-8 ELISA is performed according to manufacturer's instructions

[3] = system: human peripheral blood mononuclear cells (PBMC); assay: TNF-α secretion by human PBMC (ELISA); format: cell-based; conditions: 24 h
Procedure: as §1, §2, §3

T1 sequence (O60603 21-784): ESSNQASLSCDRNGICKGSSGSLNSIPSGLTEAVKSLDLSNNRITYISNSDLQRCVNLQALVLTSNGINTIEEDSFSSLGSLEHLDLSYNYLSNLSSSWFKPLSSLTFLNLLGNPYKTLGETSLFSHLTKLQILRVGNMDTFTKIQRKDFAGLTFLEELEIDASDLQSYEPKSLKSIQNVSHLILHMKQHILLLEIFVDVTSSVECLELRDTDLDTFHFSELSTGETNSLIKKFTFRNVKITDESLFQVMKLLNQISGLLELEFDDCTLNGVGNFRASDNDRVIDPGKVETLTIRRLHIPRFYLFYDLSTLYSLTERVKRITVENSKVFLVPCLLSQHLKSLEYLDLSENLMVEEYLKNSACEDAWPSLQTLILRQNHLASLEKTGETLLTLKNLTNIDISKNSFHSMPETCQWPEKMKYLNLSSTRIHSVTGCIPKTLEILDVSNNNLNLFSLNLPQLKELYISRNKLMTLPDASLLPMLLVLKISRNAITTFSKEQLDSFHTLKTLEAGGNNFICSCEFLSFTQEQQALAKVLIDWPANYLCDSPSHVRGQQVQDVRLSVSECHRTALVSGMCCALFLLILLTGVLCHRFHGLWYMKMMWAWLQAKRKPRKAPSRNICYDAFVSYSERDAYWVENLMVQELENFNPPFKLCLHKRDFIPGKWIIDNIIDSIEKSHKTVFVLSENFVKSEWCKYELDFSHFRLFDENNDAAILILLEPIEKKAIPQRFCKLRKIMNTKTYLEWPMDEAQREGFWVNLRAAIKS

Compound: CCCCCCCCCCCC(=O)O[C@H](CCCCCCCCCCC)CC(=O)N[C@H]1[C@H](OC[C@H]2O[C@H](OCC(O)CO)[C@H](NC(=O)C[C@H](O)CCCCCCCCCCC)[C@@H](O)[C@@H]2O)O[C@H](CO)[C@@H](OP(=O)(O)O)[C@@H]1O (stereo partly drawn) [compound 19, 2,3-Dihydroxypropyl-2-Deoxy-6-O-[2-deoxy-4-O-(dihydroxyphosphoryl)-2-[(R)-3-dodecanoyloxytetradecanoylamino]-β-D-glucopyranosyl]-2-[(R)-3-hydroxytetradecanoylamino]-α-D-glucopyranoside]
- IL6 ([1]; 1 μg/ml): 44.5 pg/mL
- IL6 ([1]; 5 μg/ml): 95.9 pg/mL
- IL6 ([1]; 20 μg/ml): 199.1 pg/mL
- IL-6 secretion (in words) ([1]; 1, 5, 20 μg/ml): able to induce IL-6 secretion
- activation of THP-1 cells (in words) [2]: good activators of THP-1 cells
- Optical density read at 625 nm, mean of duplicates ([2]; 14 ng/ml): 0.15 OD
- Optical density read at 625 nm, mean of duplicates ([2]; 41 ng/ml): 0.13 OD
- Optical density read at 625 nm, mean of duplicates ([2]; 124 ng/ml): 0.17 OD
- Optical density read at 625 nm, mean of duplicates ([2]; 370 ng/ml): 0.24 OD
- Optical density read at 625 nm, mean of duplicates ([2]; 1111 ng/ml): 0.37 OD
- Optical density read at 625 nm, mean of duplicates ([2]; 3333 ng/ml): 0.58 OD
- Optical density read at 625 nm, mean of duplicates ([2]; 10000 ng/ml): 0.77 OD
- IL-8 secretion, mean (TLR2; 14 ng/ml): 0.06 pg/mL
- IL-8 secretion, mean (TLR2; 41 ng/ml): 0.15 pg/mL
- IL-8 secretion, mean (TLR2; 124 ng/ml): 0.16 pg/mL
- IL-8 secretion, mean (TLR2; 370 ng/ml): 0.20 pg/mL
- IL-8 secretion, mean (TLR2; 1111 ng/ml): 0.27 pg/mL
- IL-8 secretion, mean (TLR2; 3333 ng/ml): 0.37 pg/mL
- IL-8 secretion, mean (TLR2; 10000 ng/ml): 0.62 pg/mL
- TNF-α ([3]; 0.2 μg/ml): 9.2 pg/mL
- TNF-α ([3]; 2 μg/ml): 5.1 pg/mL
- TNF-α ([3]; 20 μg/ml): 11.2 pg/mL
